Key:
velvetleaf [1] = test: Test Example 4: herbicidal effect by soil treatment (Table 19, symbol M); assay type: in vivo, velvetleaf (Abutilon theophrasti); settings: amount of applied herbicide 320 g/ha
Procedure, shortened: (§1)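 Scoring uses the grading scale of an earlier test, three weeks post-application. Treatment consists of spraying a diluted emulsion formulation across the surface of sterilized diluvial soil in which seeds are buried near 1.5 cm deep; boxes are kept in a greenhouse between 25° C. and 30° C.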

persian speedwell [2] = test: Test Example 4: herbicidal effect by soil treatment (Table 19, symbol R); assay type: in vivo, Persian speedwell (Veronica persica); settings: amount of applied herbicide 320 g/ha
Procedure, shortened: as §1

southern crabgrass [3] = test: Test Example 5: herbicidal effect by foliage application, plastic box (Table 20, symbol F); assay type: in vivo, southern crabgrass (Digitaria ciliaris); settings: foliage application, 320 g/ha, three weeks after application
Procedure, shortened: (§2)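 Post-emergence foliar test in sterilized diluvial soil. Compound applied as water-diluted emulsion at a predetermined rate to 14-day-old plants; evaluation at three weeks.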

green foxtail [4] = test: Test Example 5: herbicidal effect by foliage application, plastic box (Table 20, symbol G); assay type: in vivo, green foxtail (Setaria viridis); settings: foliage application, 320 g/ha, three weeks after application
Procedure, shortened: as §2

redroot pigweed [5] = test: Test Example 5: herbicidal effect by foliage application, plastic box (Table 20, symbol N); assay type: in vivo, redroot pigweed (Amaranthus retroflexus); settings: foliage application, 320 g/ha, three weeks after application
Procedure, shortened: as §2

barnyard grass [6] = test: Test Example 4: herbicidal effect by soil treatment (Table 19, symbol H); assay type: in vivo, barnyard grass (Echinochloa crus-galli); settings: amount of applied herbicide 320 g/ha
Procedure, shortened: as §1

Chinese sprangletop = test: Test Example 3: herbicidal effect by foliage application, Wagner pot (Table 18, symbol D); assay type: in vivo, chinese sprangletop (Leptochloa chinensis); settings: 320 g/ha
Procedure, shortened: (§3)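 Plants were sown in alluvial soil held under 0.1–0.5 cm standing water and grown 14 days in a greenhouse at 25–30 °C. An emulsifiable formulation, water-diluted to the set dose, was then sprayed onto the foliage, and effects were scored three weeks later using previously defined criteria.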

chickweed [7] = test: Test Example 5: herbicidal effect by foliage application, plastic box (Table 20, symbol P); assay type: in vivo, common chickweed (Stellaria media); settings: foliage application, 320 g/ha, three weeks after application
Procedure, shortened: as §2

barnyard grass [8] = test: Test Example 5: herbicidal effect by foliage application, plastic box (Table 20, symbol H); assay type: in vivo, barnyard grass (Echinochloa crus-galli); settings: foliage application, 320 g/ha, three weeks after application
Procedure, shortened: as §2

Italian ryegrass [9] = test: Test Example 4: herbicidal effect by soil treatment (Table 19, symbol K); assay type: in vivo, Italian ryegrass (Lolium multiflorum); settings: amount of applied herbicide 320 g/ha
Procedure, shortened: as §1

windgrass [10] = test: Test Example 4: herbicidal effect by soil treatment (Table 19, symbol L); assay type: in vivo, windgrass (Apera spica-venti); settings: amount of applied herbicide 320 g/ha
Procedure, shortened: as §1

lambsquarters [11] = test: Test Example 5: herbicidal effect by foliage application, plastic box (Table 20, symbol O); assay type: in vivo, lambsquarters (Chenopodium album); settings: foliage application, 320 g/ha, three weeks after application
Procedure, shortened: as §2

blackgrass [12] = test: Test Example 5: herbicidal effect by foliage application, plastic box (Table 20, symbol J); assay type: in vivo, blackgrass (Alopecurus myosuroides); settings: foliage application, 320 g/ha, three weeks after application
Procedure, shortened: as §2

chickweed [13] = test: Test Example 4: herbicidal effect by soil treatment (Table 19, symbol P); assay type: in vivo, common chickweed (Stellaria media); settings: amount of applied herbicide 320 g/ha
Procedure, shortened: as §1

green foxtail [14] = test: Test Example 4: herbicidal effect by soil treatment (Table 19, symbol G); assay type: in vivo, green foxtail (Setaria viridis); settings: amount of applied herbicide 320 g/ha
Procedure, shortened: as §1

velvetleaf [15] = test: Test Example 5: herbicidal effect by foliage application, plastic box (Table 20, symbol M); assay type: in vivo, velvetleaf (Abutilon theophrasti); settings: foliage application, 320 g/ha, three weeks after application
Procedure, shortened: as §2

lambsquarters [16] = test: Test Example 4: herbicidal effect by soil treatment (Table 19, symbol O); assay type: in vivo, lambsquarters (Chenopodium album); settings: amount of applied herbicide 320 g/ha
Procedure, shortened: as §1

redroot pigweed [17] = test: Test Example 4: herbicidal effect by soil treatment (Table 19, symbol N); assay type: in vivo, redroot pigweed (Amaranthus retroflexus); settings: amount of applied herbicide 320 g/ha
Procedure, shortened: as §1

persian speedwell [18] = test: Test Example 5: herbicidal effect by foliage application, plastic box (Table 20, symbol R); assay type: in vivo, Persian speedwell (Veronica persica); settings: foliage application, 320 g/ha, three weeks after application
Procedure, shortened: as §2

Italian ryegrass [19] = test: Test Example 5: herbicidal effect by foliage application, plastic box (Table 20, symbol K); assay type: in vivo, Italian ryegrass (Lolium multiflorum); settings: foliage application, 320 g/ha, three weeks after application
Procedure, shortened: as §2

barnyard grass [20] = test: Test Example 3: herbicidal effect by foliage application, Wagner pot (Table 18, symbol H); assay type: in vivo, barnyard grass (Echinochloa crus-galli); settings: 320 g/ha
Procedure, shortened: as §3

southern crabgrass [21] = test: Test Example 4: herbicidal effect by soil treatment (Table 19, symbol F); assay type: in vivo, southern crabgrass (Digitaria ciliaris); settings: amount of applied herbicide 320 g/ha
Procedure, shortened: as §1

wild oat [22] = test: Test Example 4: herbicidal effect by soil treatment (Table 19, symbol I); assay type: in vivo, wild oat (Avena fatua); settings: amount of applied herbicide 320 g/ha
Procedure, shortened: as §1

blackgrass [23] = test: Test Example 4: herbicidal effect by soil treatment (Table 19, symbol J); assay type: in vivo, blackgrass (Alopecurus myosuroides); settings: amount of applied herbicide 320 g/ha
Procedure, shortened: as §1

wild oat [24] = test: Test Example 5: herbicidal effect by foliage application, plastic box (Table 20, symbol I); assay type: in vivo, wild oat (Avena fatua); settings: foliage application, 320 g/ha, three weeks after application
Procedure, shortened: as §2

rice flat sedge = test: Test Example 3: herbicidal effect by foliage application, Wagner pot (Table 18, symbol E); assay type: in vivo, rice flat sedge (Cyperus iria); settings: 320 g/ha
Procedure, shortened: as §3

windgrass [25] = test: Test Example 5: herbicidal effect by foliage application, plastic box (Table 20, symbol L); assay type: in vivo, windgrass (Apera spica-venti); settings: foliage application, 320 g/ha, three weeks after application
Procedure, shortened: as §2

false cleavers [26] = test: Test Example 5: herbicidal effect by foliage application, plastic box (Table 20, symbol Q); assay type: in vivo, false cleavers (Galium spurium); settings: foliage application, 320 g/ha, three weeks after application
Procedure, shortened: as §2

false cleavers [27] = test: Test Example 4: herbicidal effect by soil treatment (Table 19, symbol Q); assay type: in vivo, false cleavers (Galium spurium); settings: amount of applied herbicide 320 g/ha
Procedure, shortened: as §1

CCCC(=O)Oc1c(C)nn(C)c(=O)c1-c1c(-c2ccc(OC)cc2)sc2cc(Cl)ccc12 [3-038]
M: velvetleaf, herbicidal effect grade (velvetleaf [1]): 0 (Herbicidal rate of 5% or less (almost no effect))
R: persian speedwell, herbicidal effect grade (persian speedwell [2]): 2 (Herbicidal rate of 20% or more and less than 40%)
F: southern crabgrass, herbicidal effect grade (southern crabgrass [3]): 0 (Herbicidal rate of 5% or less (almost no effect))
G: green foxtail, herbicidal effect grade (green foxtail [4]): 0 (Herbicidal rate of 5% or less (almost no effect))
N: redroot pigweed, herbicidal effect grade (redroot pigweed [5]): 1 (Herbicidal rate of 5% or more and less than 20%)
H: barnyard grass, herbicidal effect grade (barnyard grass [6]): 0 (Herbicidal rate of 5% or less (almost no effect))
herbicidal effect on Chinese sprangletop (D) (Chinese sprangletop): 1 (Herbicidal rate of 5% or more and less than 20%)
P: chickweed, herbicidal effect grade (chickweed [7]): 3 (Herbicidal rate of 40% or more and less than 70%)
H: barnyard grass, herbicidal effect grade (barnyard grass [8]): 0 (Herbicidal rate of 5% or less (almost no effect))
K: Italian ryegrass, herbicidal effect grade (Italian ryegrass [9]): 0 (Herbicidal rate of 5% or less (almost no effect))
L: windgrass, herbicidal effect grade (windgrass [10]): 0 (Herbicidal rate of 5% or less (almost no effect))
O: lambsquarters, herbicidal effect grade (lambsquarters [11]): 3 (Herbicidal rate of 40% or more and less than 70%)
J: blackgrass, herbicidal effect grade (blackgrass [12]): 0 (Herbicidal rate of 5% or less (almost no effect))
P: chickweed, herbicidal effect grade (chickweed [13]): 1 (Herbicidal rate of 5% or more and less than 20%)
G: green foxtail, herbicidal effect grade (green foxtail [14]): 0 (Herbicidal rate of 5% or less (almost no effect))
M: velvetleaf, herbicidal effect grade (velvetleaf [15]): 3 (Herbicidal rate of 40% or more and less than 70%)
O: lambsquarters, herbicidal effect grade (lambsquarters [16]): 3 (Herbicidal rate of 40% or more and less than 70%)
N: redroot pigweed, herbicidal effect grade (redroot pigweed [17]): 1 (Herbicidal rate of 5% or more and less than 20%)
R: persian speedwell, herbicidal effect grade (persian speedwell [18]): 3 (Herbicidal rate of 40% or more and less than 70%)
K: Italian ryegrass, herbicidal effect grade (Italian ryegrass [19]): 0 (Herbicidal rate of 5% or less (almost no effect))
herbicidal effect on barnyard grass (H) (barnyard grass [20]): 3 (Herbicidal rate of 40% or more and less than 70%)
F: southern crabgrass, herbicidal effect grade (southern crabgrass [21]): 0 (Herbicidal rate of 5% or less (almost no effect))
I: wild oat, herbicidal effect grade (wild oat [22]): 0 (Herbicidal rate of 5% or less (almost no effect))
J: blackgrass, herbicidal effect grade (blackgrass [23]): 0 (Herbicidal rate of 5% or less (almost no effect))
I: wild oat, herbicidal effect grade (wild oat [24]): 0 (Herbicidal rate of 5% or less (almost no effect))
herbicidal effect on rice flat sedge (E) (rice flat sedge): 3 (Herbicidal rate of 40% or more and less than 70%)
L: windgrass, herbicidal effect grade (windgrass [25]): 0 (Herbicidal rate of 5% or less (almost no effect))
Q: false cleavers, herbicidal effect grade (false cleavers [26]): 0 (Herbicidal rate of 5% or less (almost no effect))
Q: false cleavers, herbicidal effect grade (false cleavers [27]): 0 (Herbicidal rate of 5% or less (almost no effect))

CCCC(=O)Oc1c(C)nn(C)c(=O)c1-c1c(-c2ccc(OC(C)C)cc2)sc2cc(Cl)ccc12 [3-042]
M: velvetleaf, herbicidal effect grade (velvetleaf [1]): 0 (Herbicidal rate of 5% or less (almost no effect))
R: persian speedwell, herbicidal effect grade (persian speedwell [2]): 0 (Herbicidal rate of 5% or less (almost no effect))
F: southern crabgrass, herbicidal effect grade (southern crabgrass [3]): 0 (Herbicidal rate of 5% or less (almost no effect))
G: green foxtail, herbicidal effect grade (green foxtail [4]): 0 (Herbicidal rate of 5% or less (almost no effect))
N: redroot pigweed, herbicidal effect grade (redroot pigweed [5]): 3 (Herbicidal rate of 40% or more and less than 70%)
H: barnyard grass, herbicidal effect grade (barnyard grass [6]): 0 (Herbicidal rate of 5% or less (almost no effect))
herbicidal effect on Chinese sprangletop (D) (Chinese sprangletop): 0 (Herbicidal rate of 5% or less (almost no effect))
P: chickweed, herbicidal effect grade (chickweed [7]): 0 (Herbicidal rate of 5% or less (almost no effect))
H: barnyard grass, herbicidal effect grade (barnyard grass [8]): 0 (Herbicidal rate of 5% or less (almost no effect))
K: Italian ryegrass, herbicidal effect grade (Italian ryegrass [9]): 0 (Herbicidal rate of 5% or less (almost no effect))
L: windgrass, herbicidal effect grade (windgrass [10]): 0 (Herbicidal rate of 5% or less (almost no effect))
O: lambsquarters, herbicidal effect grade (lambsquarters [11]): 3 (Herbicidal rate of 40% or more and less than 70%)
J: blackgrass, herbicidal effect grade (blackgrass [12]): 0 (Herbicidal rate of 5% or less (almost no effect))
P: chickweed, herbicidal effect grade (chickweed [13]): 0 (Herbicidal rate of 5% or less (almost no effect))
G: green foxtail, herbicidal effect grade (green foxtail [14]): 0 (Herbicidal rate of 5% or less (almost no effect))
M: velvetleaf, herbicidal effect grade (velvetleaf [15]): 3 (Herbicidal rate of 40% or more and less than 70%)
O: lambsquarters, herbicidal effect grade (lambsquarters [16]): 0 (Herbicidal rate of 5% or less (almost no effect))
N: redroot pigweed, herbicidal effect grade (redroot pigweed [17]): 3 (Herbicidal rate of 40% or more and less than 70%)
R: persian speedwell, herbicidal effect grade (persian speedwell [18]): 0 (Herbicidal rate of 5% or less (almost no effect))
K: Italian ryegrass, herbicidal effect grade (Italian ryegrass [19]): 0 (Herbicidal rate of 5% or less (almost no effect))
herbicidal effect on barnyard grass (H) (barnyard grass [20]): 4 (Herbicidal rate of 70% or more and less than 90%)
F: southern crabgrass, herbicidal effect grade (southern crabgrass [21]): 0 (Herbicidal rate of 5% or less (almost no effect))
I: wild oat, herbicidal effect grade (wild oat [22]): 0 (Herbicidal rate of 5% or less (almost no effect))
J: blackgrass, herbicidal effect grade (blackgrass [23]): 0 (Herbicidal rate of 5% or less (almost no effect))
I: wild oat, herbicidal effect grade (wild oat [24]): 0 (Herbicidal rate of 5% or less (almost no effect))
herbicidal effect on rice flat sedge (E) (rice flat sedge): 3 (Herbicidal rate of 40% or more and less than 70%)
L: windgrass, herbicidal effect grade (windgrass [25]): 0 (Herbicidal rate of 5% or less (almost no effect))
Q: false cleavers, herbicidal effect grade (false cleavers [26]): 0 (Herbicidal rate of 5% or less (almost no effect))
Q: false cleavers, herbicidal effect grade (false cleavers [27]): 0 (Herbicidal rate of 5% or less (almost no effect))

— patent US20230085307A1, “PYRIDAZINONE COMPOUND AND HERBICIDE” (NISSAN CHEMICAL CORPORATION, priority 2019, published 2023)
